The values below come from publication PMC8844858, “Crystal structure and functional analysis of mycobacterial erythromycin resistance methyltransferase Erm38 reveals its RNA-binding site” (The Journal of Biological Chemistry, 2022).

The target in this assay is T1, Erm38 (Mycolicibacterium smegmatis, UniProt Q79N53).
T1 construct: gene erm(38); truncated, residues 13-261 of 386 (disordered termini removed), about 30 kDa; synthetic codon-optimised gene in pNIC28-Bsa4, E. coli BL21(DE3)-T1R Rosetta; IMAC, cation exchange and size exclusion
The conditions noted are these: 2.25 A, SAM-binding site.

Like-named read-outs stand apart in the source and are kept apart here.

T1 sequence (Q79N53 entry or part of it): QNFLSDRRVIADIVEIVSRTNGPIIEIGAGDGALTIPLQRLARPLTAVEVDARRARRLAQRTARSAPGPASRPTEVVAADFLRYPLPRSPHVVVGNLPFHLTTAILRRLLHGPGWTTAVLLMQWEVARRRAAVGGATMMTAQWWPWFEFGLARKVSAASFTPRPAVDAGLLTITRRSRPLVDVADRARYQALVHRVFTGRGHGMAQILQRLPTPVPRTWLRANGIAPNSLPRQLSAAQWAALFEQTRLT

For `C[S+](CC[C@H](N)C(=O)O)C[C@H]1O[C@@H](n2cnc3c(N)ncnc32)[C@H](O)[C@@H]1O` (some centres unmarked) [SAM], the “X-ray crystal structure (soak)” value (2 mM SAM soaked 24 h into native crystals) is on record as “cocrystals with either SAM or the isosteric sinefungin inhibitor were obtained by soaking”.
Take `Nc1ncnc2c1ncn2[C@@H]1O[C@H](C[C@@H](N)CC[C@H](N)C(=O)O)[C@@H](O)[C@H]1O` [SFG, sinefungin]: the “X-ray crystal structure (soak)” value (2 mM sinefungin soaked 24 h into native crystals) is on record as “cocrystals with either SAM or the isosteric sinefungin inhibitor were obtained by soaking”.
